Here are results for 43 compounds from patent US8685977B2, “Chemical compounds” (Pfizer Limited, priority 2010, dated 2014).

Each structure is given as a SMILES string.

T1 sequence (Q15858 whole entry): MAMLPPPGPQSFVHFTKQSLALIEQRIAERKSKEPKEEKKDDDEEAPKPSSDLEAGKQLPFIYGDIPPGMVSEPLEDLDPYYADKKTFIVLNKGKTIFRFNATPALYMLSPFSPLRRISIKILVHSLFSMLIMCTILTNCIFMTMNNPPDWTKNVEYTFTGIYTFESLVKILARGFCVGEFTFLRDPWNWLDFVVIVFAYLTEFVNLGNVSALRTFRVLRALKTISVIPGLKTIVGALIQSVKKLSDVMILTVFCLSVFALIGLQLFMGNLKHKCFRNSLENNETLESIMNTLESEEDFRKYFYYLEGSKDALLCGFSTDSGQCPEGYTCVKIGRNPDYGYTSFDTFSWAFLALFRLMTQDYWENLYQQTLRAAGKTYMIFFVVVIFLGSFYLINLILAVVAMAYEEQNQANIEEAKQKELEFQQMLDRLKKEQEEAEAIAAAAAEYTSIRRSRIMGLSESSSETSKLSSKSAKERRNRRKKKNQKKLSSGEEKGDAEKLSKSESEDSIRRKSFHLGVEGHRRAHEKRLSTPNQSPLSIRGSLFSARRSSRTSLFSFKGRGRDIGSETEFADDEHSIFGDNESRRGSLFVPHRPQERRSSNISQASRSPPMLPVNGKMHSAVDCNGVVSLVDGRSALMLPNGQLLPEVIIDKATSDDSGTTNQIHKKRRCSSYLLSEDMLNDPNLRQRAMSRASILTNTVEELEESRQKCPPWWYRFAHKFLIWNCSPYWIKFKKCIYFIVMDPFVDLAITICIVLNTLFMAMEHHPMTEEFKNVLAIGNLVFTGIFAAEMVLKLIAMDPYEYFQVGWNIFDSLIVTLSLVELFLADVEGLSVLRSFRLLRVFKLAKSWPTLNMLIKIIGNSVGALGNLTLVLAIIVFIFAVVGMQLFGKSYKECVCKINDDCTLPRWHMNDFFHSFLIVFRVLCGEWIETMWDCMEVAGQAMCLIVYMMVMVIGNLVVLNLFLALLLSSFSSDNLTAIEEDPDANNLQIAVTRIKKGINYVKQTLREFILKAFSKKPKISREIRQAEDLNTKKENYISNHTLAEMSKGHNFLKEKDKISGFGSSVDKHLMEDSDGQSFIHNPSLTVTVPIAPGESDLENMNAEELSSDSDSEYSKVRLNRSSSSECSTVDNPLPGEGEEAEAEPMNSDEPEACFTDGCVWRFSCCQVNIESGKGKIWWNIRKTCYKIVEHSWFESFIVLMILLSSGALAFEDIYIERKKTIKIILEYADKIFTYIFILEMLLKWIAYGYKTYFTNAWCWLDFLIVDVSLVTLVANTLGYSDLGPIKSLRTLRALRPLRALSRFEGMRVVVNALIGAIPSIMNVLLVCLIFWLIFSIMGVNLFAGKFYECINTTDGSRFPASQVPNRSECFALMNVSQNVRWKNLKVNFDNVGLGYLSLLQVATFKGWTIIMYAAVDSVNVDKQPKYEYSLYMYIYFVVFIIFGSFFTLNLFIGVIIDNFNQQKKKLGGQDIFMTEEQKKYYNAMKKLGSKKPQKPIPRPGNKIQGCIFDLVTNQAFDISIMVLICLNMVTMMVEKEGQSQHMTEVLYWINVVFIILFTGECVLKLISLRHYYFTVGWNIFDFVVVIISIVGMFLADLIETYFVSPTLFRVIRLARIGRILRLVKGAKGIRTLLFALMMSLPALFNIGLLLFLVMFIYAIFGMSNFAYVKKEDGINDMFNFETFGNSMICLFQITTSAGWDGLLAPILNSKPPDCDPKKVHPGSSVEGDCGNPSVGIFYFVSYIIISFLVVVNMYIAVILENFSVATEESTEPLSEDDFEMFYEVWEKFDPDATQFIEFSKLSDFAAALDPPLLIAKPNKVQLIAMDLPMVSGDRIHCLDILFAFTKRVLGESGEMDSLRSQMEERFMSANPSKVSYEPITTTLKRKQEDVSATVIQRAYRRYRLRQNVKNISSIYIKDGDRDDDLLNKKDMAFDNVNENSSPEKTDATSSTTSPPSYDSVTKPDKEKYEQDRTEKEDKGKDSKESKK

This assay concerns the target T1, Nav1.7 (or SCN9A) channel (Homo sapiens, UniProt Q15858).
T1 construct: expressed in transfected cells
Briefly: Nav1.7 PatchXpress 7000 automated electrophysiology assay (HEK cells stably expressing hSCN9A). It counts as cell-based. Particulars: voltage-clamped at V1/2 of inactivation, read-out: Nav1.7 EIC50. The essentials: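 Automated whole-cell clamp (PatchXpress) of HEK cells stably expressing hSCN9A, at 22-24 °C, in extracellular buffer at pH 7.4. Cells were held at the measured V1/2 of inactivation, then stepped to 0 mV for 20 ms. Single-concentration % inhibition gave EIC50 = concentration × (100 − %inhibition)/%inhibition, excluding <20% or >80%.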
On to `Cc1ccc(Cl)c(Oc2cc(F)c(C(=O)NS(C)(=O)=O)cc2F)c1` [Example 110, 4-(2-chloro-5-methylphenoxy)-2,5-difluoro-N-(methylsulfonyl)benzamide], for which the IC50 was greater than 1000 nM. To `CS(=O)(=O)NC(=O)c1cc(F)c(Oc2ccc(Cl)c(Cl)c2)cc1F` [Example 21, 4-(3,4-dichlorophenoxy)-2,5-difluoro-N-(methylsulfonyl)benzamide] belongs 450 nM. Take `COc1ccc(OC(F)(F)F)cc1Oc1cc(F)c(C(=O)NS(C)(=O)=O)cc1F` [Example 314, 2,5-difluoro-4-[2-methoxy-5-(trifluoromethoxy)phenoxy]-N-(methylsulfonyl)benzamide]: the IC50 stood at 1100 nM.

In the case of `CS(=O)(=O)NC(=O)c1cc(Cl)c(Oc2ccc(F)cc2)cc1F` [Example 296, 5-chloro-2-fluoro-4-(4-fluorophenoxy)-N-(methylsulfonyl)benzamide], the IC50 was found to be 390 nM. Turning to `Cc1cc(Oc2ccc(C(=O)NS(C)(=O)=O)cc2)ccc1F` [Example 199, 4-(4-fluoro-3-methylphenoxy)-N-(methylsulfonyl)benzamide], the IC50 turned out to be 7600 nM. The result for `Cc1ccc(Oc2ccc(C(=O)NS(C)(=O)=O)cc2)cc1` [Example 304, 4-(4-methylphenoxy)-N-(methylsulfonyl)benzamide] reads 8700 nM. To `CS(=O)(=O)NC(=O)c1cc(F)c(Oc2cccc(C#N)c2)cc1F` [Example 125, 4-(3-cyanophenoxy)-2,5-difluoro-N-(methylsulfonyl)benzamide] belongs greater than 3000 nM; to `Cc1cccc(Oc2cc(F)c(C(=O)NS(C)(=O)=O)cc2F)c1` [Example 157, 2,5-difluoro-4-(3-methylphenoxy)-N-(methylsulfonyl)benzamide], 6800 nM; to `Cc1ccccc1Oc1cc(F)c(C(=O)NS(C)(=O)=O)cc1Cl` [Example 297, 5-chloro-2-fluoro-4-(2-methylphenoxy)-N-(methylsulfonyl)benzamide], 2300 nM. With `CS(=O)(=O)NC(=O)c1cc(Cl)c(Oc2ccc(OC(F)(F)F)c(Cl)c2)cc1F` [Example 7, 5-chloro-4-[3-chloro-4-(trifluoromethoxy)phenoxy]-2-fluoro-N-(methylsulfonyl)benzamide], the IC50 stood at 25 nM. The result for `CS(=O)(=O)NC(=O)c1ccc(Oc2ccccc2F)cc1` [Example 171, 4-(2-fluorophenoxy)-N-(methylsulfonyl)benzamide] reads greater than 10000 nM. The result for `COc1ccc(F)cc1Oc1ccc(C(=O)NS(C)(=O)=O)cc1` [Example 188, 4-(5-fluoro-2-methoxyphenoxy)-N-(methylsulfonyl)benzamide] reads greater than 10000 nM; that for `CS(=O)(=O)NC(=O)c1ccc(Oc2ccc(C(F)(F)F)cc2-c2ccnnc2)cc1` [Example 50, N-(methylsulfonyl)-4-(2-(pyridazin-4-yl)-4-(trifluoromethyl)phenoxy)benzamide], greater than 3000 nM. On to `Cn1ccc(-c2ccccc2Oc2ccc(C(=O)NS(C)(=O)=O)cc2)n1` [Example 197, 4-[2-(1-methyl-1H-pyrazol-3-yl)phenoxy]-N-(methylsulfonyl)benzamide], for which the IC50 is greater than 10000 nM. In the case of `Cc1ccc(C)c(Oc2cc(F)c(C(=O)NS(C)(=O)=O)cc2F)c1` [Example 127, 4-(2,5-dimethylphenoxy)-2,5-difluoro-N-(methylsulfonyl)benzamide], the IC50 was greater than 3000 nM. With `CC(C)Oc1ccccc1Oc1cc(F)c(C(=O)NS(C)(=O)=O)cc1F` [Example 90, 2,5-difluoro-4-(2-isopropoxyphenoxy)-N-(methylsulfonyl)benzamide], the IC50 is greater than 300 nM. `CS(=O)(=O)NC(=O)c1ccc(Oc2ccc(-c3ccccc3)cc2)cc1` [Example 245, 4-(biphenyl-4-yloxy)-N-(methylsulfonyl)benzamide]: the IC50 came to 1300 nM. The result for `COc1cc(Oc2ccc(Cl)c(C(F)(F)F)c2)ccc1C(=O)NS(C)(=O)=O` [Example 326, 4-(4-chloro-3-(trifluoromethyl)phenoxy)-2-methoxy-N-(methylsulfonyl)benzamide] reads 4100 nM. For `COc1cc(Oc2ccc(Cl)c(F)c2)ccc1C(=O)NS(C)(=O)=O` [Example 228, 4-(4-chloro-3-fluorophenoxy)-2-methoxy-N-(methylsulfonyl)benzamide], the IC50 stood at 5400 nM. With `Cc1cc(Oc2cc(F)c(C(=O)NS(C)(=O)=O)cc2F)ccc1F` [Example 145, 2,5-difluoro-4-(4-fluoro-3-methylphenoxy)-N-(methylsulfonyl)benzamide], the IC50 was 1200 nM. The result for `COc1c(C(=O)NS(C)(=O)=O)ccc(Oc2ccc(Cl)c(C)c2)c1F` [Example 230, 4-(4-chloro-3-methylphenoxy)-3-fluoro-2-methoxy-N-(methylsulfonyl)benzamide] reads 860 nM; that for `COc1c(C(=O)NS(C)(=O)=O)ccc(Oc2cccc(Cl)c2)c1F` [Example 225, 4-(3-chlorophenoxy)-3-fluoro-2-methoxy-N-(methylsulfonyl)benzamide], 3300 nM; that for `COc1cccc(Oc2cc(F)c(C(=O)NS(C)(=O)=O)cc2Cl)c1` [Example 289, 5-chloro-2-fluoro-4-(3-methoxyphenoxy)-N-(methylsulfonyl)benzamide], 1200 nM. To `COc1ccc(Oc2cc(F)c(C(=O)NS(C)(=O)=O)cc2F)c(Cl)c1` [Example 146, 4-(2-chloro-4-methoxyphenoxy)-2,5-difluoro-N-(methylsulfonyl)benzamide] belongs greater than 3000 nM.

Take `CS(=O)(=O)NC(=O)c1cc(Cl)c(Oc2ccc(Cl)c(OC(F)F)c2)cc1F` [Example 48, 5-chloro-4-[4-chloro-3-(difluoromethoxy)phenoxy]-2-fluoro-N-(methylsulfonyl)benzamide]: the IC50 came out at 210 nM. As to `CS(=O)(=O)NC(=O)c1cc(F)c(Oc2ccc(Cl)c(OC(F)(F)F)c2)cc1F` [Example 56, 4-(4-chloro-3-(trifluoromethoxy)phenoxy)-2,5-difluoro-N-(methylsulfonyl)benzamide], the IC50 was 200 nM. The result for `CS(=O)(=O)NC(=O)c1cc(F)c(Oc2cccc(F)c2)cc1F` [Example 142, 2,5-difluoro-4-(3-fluorophenoxy)-N-(methylsulfonyl)benzamide] reads greater than 3000 nM.

Regarding `CS(=O)(=O)NC(=O)c1cc(F)c(Oc2ccc(F)cc2Cl)cc1F` [Example 120, 4-(2-chloro-4-fluorophenoxy)-2,5-difluoro-N-(methylsulfonyl)benzamide], the IC50 is greater than 3000 nM. To `CS(=O)(=O)NC(=O)c1ccc(Sc2ccccc2Cl)cc1` [Example 323, 4-(2-chlorophenylthio)-N-(methylsulfonyl)benzamide] belongs 36000 nM; to `CS(=O)(=O)NC(=O)c1ccc(Oc2ccc3ccccc3c2)c(C#N)c1` [Example 269, 3-cyano-N-(methylsulfonyl)-4-(2-naphthyloxy)benzamide], 1700 nM; to `CS(=O)(=O)NC(=O)c1ccc(Oc2cccc3ccccc23)c(C#N)c1` [Example 283, 3-cyano-N-(methylsulfonyl)-4-(1-naphthyloxy)benzamide], 8600 nM.

With `CS(=O)(=O)NC(=O)c1ccc(Oc2ccc(F)c(Cl)c2)cc1` [Example 200, 4-(3-chloro-4-fluorophenoxy)-N-(methylsulfonyl)benzamide], the IC50 worked out at 8100 nM. To `Cn1nc(C(F)(F)F)cc1-c1ccc(Oc2ccc(C(=O)NS(C)(=O)=O)cc2)cc1` [Example 312, N-(methylsulfonyl)-4-{4-[1-methyl-3-(trifluoromethyl)-1H-pyrazol-5-yl]phenoxy}benzamide] belongs 3300 nM; to `COc1ccc(Oc2cc(F)c(C(=O)NS(C)(=O)=O)cc2F)c(C#N)c1` [Example 116, 4-(2-cyano-4-methoxyphenoxy)-2,5-difluoro-N-(methylsulfonyl)benzamide], greater than 3000 nM; to `CCC(C)S(=O)(=O)NC(=O)c1cc(F)c(Oc2ccc(Cl)c(C(F)(F)F)c2)cc1F` (stereo not shown) [Example 58, N-(sec-butylsulfonyl)-4-[4-chloro-3-(trifluoromethyl)phenoxy]-2,5-difluorobenzamide], 430 nM. As for `COc1cc(C#N)ccc1Oc1cc(F)c(C(=O)NS(C)(=O)=O)cc1F` [Example 135, 4-(4-cyano-2-methoxyphenoxy)-2,5-difluoro-N-(methylsulfonyl)benzamide], the IC50 was greater than 3000 nM. As to `CS(=O)(=O)NC(=O)c1ccc(Oc2ccc(Cl)c(Cl)c2)c(F)c1` [Example 34, 4-(3,4-dichlorophenoxy)-3-fluoro-N-(methylsulfonyl)benzamide], the IC50 was found to be 1500 nM. To `CS(=O)(=O)NC(=O)c1cc(Cl)c(Oc2ccc(Cl)c(OC(F)(F)F)c2)cc1F` [Example 17, 5-chloro-4-[4-chloro-3-(trifluoromethoxy)phenoxy]-2-fluoro-N-(methylsulfonyl)benzamide] belongs 32 nM.

Consider `CS(=O)(=O)NC(=O)c1ccc(Oc2ccc(F)cc2)c(Cl)c1` [Example 41, 3-chloro-4-(4-fluorophenoxy)-N-(methylsulfonyl)benzamide], for which the IC50 came to 660 nM. Regarding `COc1ccc(Oc2ccc(C(=O)NS(C)(=O)=O)cc2)cc1` [Example 186, 4-(4-methoxyphenoxy)-N-(methylsulfonyl)benzamide], the IC50 was 34000 nM. The result for `CS(=O)(=O)NC(=O)c1ccc(Oc2ccc(Cl)c(C(F)(F)F)c2)cc1F` [Example 14, 4-(4-chloro-3-(trifluoromethyl)phenoxy)-2-fluoro-N-(methylsulfonyl)benzamide] reads 850 nM; that for `CS(=O)(=O)NC(=O)c1ccc(Oc2ccc(-n3ccnc3)cc2)cc1` [Example 311, 4-[4-(1H-imidazol-1-yl)phenoxy]-N-(methylsulfonyl)benzamide], greater than 3000 nM.

Regarding `CCOc1ccccc1Oc1cc(F)c(C(=O)NS(C)(=O)=O)cc1F` [Example 98, 4-(2-ethoxyphenoxy)-2,5-difluoro-N-(methylsulfonyl)benzamide], the IC50 is greater than 1000 nM.
